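Dose response: 5 concentrations. Exposure: 48 h. Format: 96-well plates. Endpoint: linear interpolation; highest concentration if not reached. GI50 marks 50% less growth. TGI marks complete inhibition of growth.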
Key:
Experiment in all cases: DTP human tumour cell line panel, 48 h
[1] = system: CAKI-1 renal
[2] = system: HOP-92 NSCLC
[3] = system: HCC-2998 colon
[4] = system: SF-268 CNS
[5] = system: SN12C renal
[6] = system: MOLT-4 leukemia
[7] = system: NCI-H226 lung
[8] = system: MALME-3M melanoma
[9] = system: T-47D breast
[10] = system: ACHN renal
[11] = system: SK-MEL-5 melanoma
[12] = system: SNB-75 CNS
[13] = system: LOX IMVI melanoma
[14] = system: K-562 leukemia
[15] = system: A498 renal
[16] = system: NCI-H460 lung
[17] = system: OVCAR-8 ovarian
[18] = system: SF-295 CNS
[19] = system: HCT-15 colon
[20] = system: SNB-19 CNS
[21] = system: SK-OV-3 ovarian
[22] = system: NCI-H522 lung
[23] = system: HT29 colon
[24] = system: UACC-62 melanoma
[25] = system: TK-10 renal
[26] = system: HCT-116 colon
[27] = system: HL-60(TB) leukemia
[28] = system: PC-3 prostate
[29] = system: SK-MEL-2 melanoma

Compound: COC(=O)c1cc2c(cc1Cl)SC1=NN(C)C(N(C)C)N1S2(=O)=O (configuration not stated)
- TGI [1]: > 100 µM
- GI50 [2]: > 100 µM
- TGI [2]: > 100 µM
- GI50 [3]: > 100 µM
- TGI [3]: > 100 µM
- GI50 [4]: > 100 µM
- TGI [4]: > 100 µM
- GI50 [5]: > 100 µM
- TGI [5]: > 100 µM
- GI50 [6]: 62.8 µM
- TGI [6]: > 100 µM
- GI50 [7]: > 100 µM
- TGI [7]: > 100 µM
- GI50 [8]: > 100 µM
- TGI [8]: > 100 µM
- GI50 [9]: > 100 µM
- TGI [9]: > 100 µM
- GI50 [10]: > 100 µM
- TGI [10]: > 100 µM
- GI50 [11]: > 100 µM
- TGI [11]: > 100 µM
- GI50 [12]: > 100 µM
- TGI [12]: > 100 µM
- GI50 [13]: > 100 µM
- TGI [13]: > 100 µM
- GI50 [14]: > 100 µM
- TGI [14]: > 100 µM
- GI50 [15]: > 100 µM
- TGI [15]: > 100 µM
- GI50 [16]: > 100 µM
- TGI [16]: > 100 µM
- GI50 [17]: > 100 µM
- TGI [17]: > 100 µM
- GI50 [18]: > 100 µM
- TGI [18]: > 100 µM
- GI50 [19]: > 100 µM
- TGI [19]: > 100 µM
- GI50 [20]: > 100 µM
- TGI [20]: > 100 µM
- GI50 [21]: > 100 µM
- TGI [21]: > 100 µM
- GI50 [22]: > 100 µM
- TGI [22]: > 100 µM
- GI50 [23]: > 100 µM
- TGI [23]: > 100 µM
- GI50 [24]: > 100 µM
- TGI [24]: > 100 µM
- GI50 [25]: > 100 µM
- TGI [25]: > 100 µM
- GI50 [26]: > 100 µM
- TGI [26]: > 100 µM
- GI50 [27]: > 100 µM
- TGI [27]: > 100 µM
- GI50 [28]: > 100 µM
- TGI [28]: > 100 µM
- GI50 [29]: > 100 µM
- TGI [29]: > 100 µM
